Results published in PubChem BioAssay (NCI).
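How tested: cells in 96-well plates exposed to compound for 48 hours at five concentrations. TGI denotes the concentration required for complete inhibition of growth.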

Assays:
Test in all cases: inhibition of tumour cell growth, NCI panel, 48 h
M14 melanoma = system: M14 melanoma
SF-539 CNS = system: SF-539 CNS
UACC-257 melanoma = system: UACC-257 melanoma
RPMI-8226 leukemia = system: RPMI-8226 leukemia
SN12C renal = system: SN12C renal
CCRF-CEM leukemia = system: CCRF-CEM leukemia
UO-31 renal = system: UO-31 renal
OVCAR-8 ovarian = system: OVCAR-8 ovarian
MOLT-4 leukemia = system: MOLT-4 leukemia
SK-MEL-28 melanoma = system: SK-MEL-28 melanoma
SF-295 CNS = system: SF-295 CNS
786-0 renal = system: 786-0 renal
COLO 205 colon = system: COLO 205 colon
K-562 leukemia = system: K-562 leukemia
SW-620 colon = system: SW-620 colon
A498 renal = system: A498 renal
HCC-2998 colon = system: HCC-2998 colon
SNB-75 CNS = system: SNB-75 CNS
SNB-78 CNS = system: SNB-78 CNS
A549 NSCLC = system: A549 NSCLC
OVCAR-4 ovarian = system: OVCAR-4 ovarian
HOP-18 NSCLC = system: HOP-18 NSCLC
MALME-3M melanoma = system: MALME-3M melanoma
U251 CNS = system: U251 CNS
ACHN renal = system: ACHN renal
HCT-15 colon = system: HCT-15 colon
DLD-1 colon = system: DLD-1 colon
SR leukemia = system: SR leukemia
M19-MEL melanoma = system: M19-MEL melanoma
HCT-116 colon = system: HCT-116 colon
XF 498 CNS = system: XF 498 CNS
HT29 colon = system: HT29 colon
SK-OV-3 ovarian = system: SK-OV-3 ovarian
DMS 114 small cell lung = system: DMS 114 small cell lung
HOP-92 NSCLC = system: HOP-92 NSCLC
HOP-62 NSCLC = system: HOP-62 NSCLC
SNB-19 CNS = system: SNB-19 CNS
RXF 393 renal = system: RXF 393 renal
NCI-H23 lung = system: NCI-H23 lung
NCI-H522 lung = system: NCI-H522 lung
HL-60(TB) leukemia = system: HL-60(TB) leukemia
LXFL 529 NSCLC = system: LXFL 529 NSCLC
DMS 273 small cell lung = system: DMS 273 small cell lung
SK-MEL-5 melanoma = system: SK-MEL-5 melanoma
UACC-62 melanoma = system: UACC-62 melanoma
KM20L2 colon = system: KM20L2 colon
SF-268 CNS = system: SF-268 CNS
EKVX NSCLC = system: EKVX NSCLC
IGROV1 ovarian = system: IGROV1 ovarian
NCI-H226 lung = system: NCI-H226 lung
SK-MEL-2 melanoma = system: SK-MEL-2 melanoma
NCI-H460 lung = system: NCI-H460 lung
RXF-631 renal = system: RXF-631 renal
LOX IMVI melanoma = system: LOX IMVI melanoma
OVCAR-5 ovarian = system: OVCAR-5 ovarian
OVCAR-3 ovarian = system: OVCAR-3 ovarian
KM12 colon = system: KM12 colon
TK-10 renal = system: TK-10 renal

## COc1ccc(/C(Cl)=C/c2cc(OC)ccc2OC)cc1
M14 melanoma
  TGI: > 100 µM
SF-539 CNS
  TGI: > 100 µM
UACC-257 melanoma
  TGI: > 100 µM
RPMI-8226 leukemia
  TGI: > 100 µM
SN12C renal
  TGI: > 100 µM
CCRF-CEM leukemia
  TGI: > 100 µM
UO-31 renal
  TGI: > 100 µM
OVCAR-8 ovarian
  TGI: > 100 µM
MOLT-4 leukemia
  TGI: > 100 µM
SK-MEL-28 melanoma
  TGI: > 100 µM
SF-295 CNS
  TGI: > 100 µM
786-0 renal
  TGI: > 100 µM
COLO 205 colon
  TGI: > 100 µM
K-562 leukemia
  TGI: > 100 µM
SW-620 colon
  TGI: > 100 µM
A498 renal
  TGI: > 100 µM
HCC-2998 colon
  TGI: > 100 µM
SNB-75 CNS
  TGI: > 100 µM
SNB-78 CNS
  TGI: > 100 µM
A549 NSCLC
  TGI: > 100 µM
OVCAR-4 ovarian
  TGI: > 100 µM
HOP-18 NSCLC
  TGI: > 100 µM
MALME-3M melanoma
  TGI: > 100 µM
U251 CNS
  TGI: > 100 µM
ACHN renal
  TGI: > 100 µM
HCT-15 colon
  TGI: > 100 µM
DLD-1 colon
  TGI: > 100 µM
SR leukemia
  TGI: > 100 µM
M19-MEL melanoma
  TGI: > 100 µM
HCT-116 colon
  TGI: > 100 µM
XF 498 CNS
  TGI: > 100 µM
HT29 colon
  TGI: > 100 µM
SK-OV-3 ovarian
  TGI: > 100 µM
DMS 114 small cell lung
  TGI: > 100 µM
HOP-92 NSCLC
  TGI: > 100 µM
HOP-62 NSCLC
  TGI: > 100 µM
SNB-19 CNS
  TGI: > 100 µM
RXF 393 renal
  TGI: 69.6 µM
NCI-H23 lung
  TGI: > 100 µM
NCI-H522 lung
  TGI: > 100 µM
HL-60(TB) leukemia
  TGI: 81.8 µM
LXFL 529 NSCLC
  TGI: > 100 µM
DMS 273 small cell lung
  TGI: > 100 µM
SK-MEL-5 melanoma
  TGI: > 100 µM
UACC-62 melanoma
  TGI: > 100 µM
KM20L2 colon
  TGI: > 100 µM
SF-268 CNS
  TGI: > 100 µM
EKVX NSCLC
  TGI: > 100 µM
IGROV1 ovarian
  TGI: > 100 µM
NCI-H226 lung
  TGI: > 100 µM

## O=S(=O)(NCn1ccc2ccccc21)c1ccccc1
M14 melanoma
  TGI: > 100 µM
SF-539 CNS
  TGI: > 100 µM
UACC-257 melanoma
  TGI: > 100 µM
RPMI-8226 leukemia
  TGI: 47.2 µM
SN12C renal
  TGI: > 100 µM
CCRF-CEM leukemia
  TGI: > 100 µM
UO-31 renal
  TGI: > 100 µM
SK-MEL-2 melanoma
  TGI: > 100 µM
OVCAR-8 ovarian
  TGI: > 100 µM
NCI-H460 lung
  TGI: > 100 µM
MOLT-4 leukemia
  TGI: > 100 µM
SK-MEL-28 melanoma
  TGI: > 100 µM
SF-295 CNS
  TGI: > 100 µM
786-0 renal
  TGI: > 100 µM
COLO 205 colon
  TGI: > 100 µM
K-562 leukemia
  TGI: > 100 µM
SW-620 colon
  TGI: > 100 µM
A498 renal
  TGI: > 100 µM
HCC-2998 colon
  TGI: > 100 µM
SNB-75 CNS
  TGI: > 100 µM
SNB-78 CNS
  TGI: > 100 µM
A549 NSCLC
  TGI: > 100 µM
HOP-18 NSCLC
  TGI: > 100 µM
MALME-3M melanoma
  TGI: > 100 µM
U251 CNS
  TGI: > 100 µM
RXF-631 renal
  TGI: > 100 µM
ACHN renal
  TGI: > 100 µM
HCT-15 colon
  TGI: > 100 µM
DLD-1 colon
  TGI: > 100 µM
SR leukemia
  TGI: > 74.3 µM
LOX IMVI melanoma
  TGI: > 100 µM
M19-MEL melanoma
  TGI: > 100 µM
HCT-116 colon
  TGI: > 100 µM
XF 498 CNS
  TGI: > 100 µM
HT29 colon
  TGI: > 57.2 µM
OVCAR-5 ovarian
  TGI: > 100 µM
SK-OV-3 ovarian
  TGI: > 100 µM
HOP-92 NSCLC
  TGI: > 100 µM
HOP-62 NSCLC
  TGI: > 100 µM
SNB-19 CNS
  TGI: > 31.6 µM
RXF 393 renal
  TGI: > 100 µM
NCI-H23 lung
  TGI: > 100 µM
NCI-H522 lung
  TGI: > 100 µM
HL-60(TB) leukemia
  TGI: 41 µM
LXFL 529 NSCLC
  TGI: > 100 µM
OVCAR-3 ovarian
  TGI: > 100 µM
DMS 273 small cell lung
  TGI: > 100 µM
SK-MEL-5 melanoma
  TGI: > 100 µM
UACC-62 melanoma
  TGI: > 100 µM
KM12 colon
  TGI: > 100 µM
TK-10 renal
  TGI: > 100 µM
KM20L2 colon
  TGI: > 100 µM
SF-268 CNS
  TGI: > 100 µM
EKVX NSCLC
  TGI: > 100 µM
IGROV1 ovarian
  TGI: > 100 µM
NCI-H226 lung
  TGI: > 100 µM
